Measured values as given in ChEMBL document CHEMBL1141587, “Substituted oxazolidinones as novel NPC1L1 ligands for the inhibition of cholesterol absorption” (Bioorg Med Chem Lett, 2008).

Tests used:
[1] = target: NPC1-like intracellular cholesterol transporter 1 (Rattus norvegicus, UniProt Q6T3U3); assay: Displacement of [3H]ezetimibe-glucuronide from NPC1L1 in Sprague-Dawley rat brush border membrane
Hamster = assay: Inhibition of cholesterol absorption in chow fed hamster at 3 mg/kg, po; format: functional; conditions: Cricetinae
[2] = Half life in rat hepatocytes; format: ADME, cell-based, Liver, Hepatocyte
[3] = Metabolic stability assessed as half life in rat liver microsomes; format: ADME, Microsome

Sequence of NPC1-like intracellular cholesterol transporter 1 (Q6T3U3 21-1331 limits assumed): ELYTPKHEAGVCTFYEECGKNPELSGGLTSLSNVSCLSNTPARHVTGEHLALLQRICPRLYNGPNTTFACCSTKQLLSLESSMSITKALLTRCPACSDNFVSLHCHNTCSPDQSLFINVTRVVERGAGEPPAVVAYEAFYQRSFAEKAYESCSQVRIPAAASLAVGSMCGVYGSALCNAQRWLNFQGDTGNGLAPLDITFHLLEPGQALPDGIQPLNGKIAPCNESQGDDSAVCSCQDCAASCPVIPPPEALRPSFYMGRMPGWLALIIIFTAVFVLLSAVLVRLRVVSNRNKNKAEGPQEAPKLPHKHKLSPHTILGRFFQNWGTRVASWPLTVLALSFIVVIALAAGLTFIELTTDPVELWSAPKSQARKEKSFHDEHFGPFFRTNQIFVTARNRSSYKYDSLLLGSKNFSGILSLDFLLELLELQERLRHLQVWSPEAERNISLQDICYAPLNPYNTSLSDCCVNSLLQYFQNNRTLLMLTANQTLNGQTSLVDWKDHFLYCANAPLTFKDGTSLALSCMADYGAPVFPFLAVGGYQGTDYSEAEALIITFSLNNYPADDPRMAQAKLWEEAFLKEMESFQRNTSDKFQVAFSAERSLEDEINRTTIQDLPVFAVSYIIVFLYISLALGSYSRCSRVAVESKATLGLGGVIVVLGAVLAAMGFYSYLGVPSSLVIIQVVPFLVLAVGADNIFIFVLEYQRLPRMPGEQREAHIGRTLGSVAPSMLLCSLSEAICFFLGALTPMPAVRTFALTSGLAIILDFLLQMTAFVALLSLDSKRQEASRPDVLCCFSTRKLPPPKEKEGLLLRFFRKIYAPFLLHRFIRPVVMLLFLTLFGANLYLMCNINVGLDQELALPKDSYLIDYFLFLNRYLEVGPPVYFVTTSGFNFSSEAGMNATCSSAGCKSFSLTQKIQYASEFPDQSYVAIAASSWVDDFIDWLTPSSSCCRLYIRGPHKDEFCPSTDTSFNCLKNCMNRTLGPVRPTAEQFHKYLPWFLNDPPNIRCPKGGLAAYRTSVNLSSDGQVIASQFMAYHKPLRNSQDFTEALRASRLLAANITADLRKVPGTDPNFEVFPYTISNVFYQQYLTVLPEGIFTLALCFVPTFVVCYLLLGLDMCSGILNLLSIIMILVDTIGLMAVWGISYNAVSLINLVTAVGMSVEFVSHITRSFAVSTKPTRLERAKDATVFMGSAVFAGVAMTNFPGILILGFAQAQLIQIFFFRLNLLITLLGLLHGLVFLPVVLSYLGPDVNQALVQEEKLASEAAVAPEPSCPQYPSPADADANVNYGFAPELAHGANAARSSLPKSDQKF

Row | SMILES | Ki [1] [µM] | also measured
1 | COc1ccc(O)c([C@@H]2[C@@H]([C@H](O)CCc3ccccc3)OC(=O)N2c2cccc(F)c2)c1 | > 50 | –
2 | O=C(O)[C@H]1O[C@@H](Oc2ccc([C@@H]3[C@@H]([C@H](O)CCc4ccccc4)OC(=O)N3c3ccc(F)cc3)cc2)[C@H](O)[C@@H](O)[C@@H]1O | > 50 | –
3 | COc1cccc(CN(C)C(=O)[C@H]2OC(=O)N(c3ccc(F)cc3)[C@@H]2c2ccc(O)cc2)c1 | 11 | –
4 | O=C1O[C@H]([C@H](O)CCc2ccccc2)[C@@H](c2cccc(F)c2O)N1c1cccc(F)c1 | > 50 | inhibition in vivo at 3 mg/kg (Hamster): 0%
5 | O=C1O[C@H]([C@H](O)CCc2ccccc2)[C@@H](c2ccc(O)cc2)N1c1ccccc1F | > 50 | –
6 | O=C1O[C@H]([C@H](O)CCc2ccccc2)[C@@H](c2cc(F)ccc2O)N1c1cccc(F)c1 | 18 | inhibition in vivo at 3 mg/kg (Hamster): 0%
7 | Cc1ccc([C@@H]2[C@@H]([C@H](O)CCc3ccccc3)OC(=O)N2c2cccc(F)c2)c(O)c1 | 16 | –
8 | COc1ccc([C@@H]2[C@@H]([C@H](O)CCc3ccccc3)OC(=O)N2c2ccc(F)cc2)c(O)c1 | 4.8 | half-life [2]: 4.15 h
9 | COc1ccc([C@@H]2[C@@H]([C@H](O)CCc3ccccc3)OC(=O)N2c2ccc(F)cc2)c(OC)c1 | > 50 | –
10 | O=C1O[C@H]([C@H](O)CCc2ccccc2)[C@@H](c2ccc(O)cc2O)N1c1ccc(F)cc1 | 9.2 | half-life [2]: 2.27 h
11 | O=C1O[C@H](CC[C@H](O)c2ccc(F)cc2)[C@@H](c2ccc(O)cc2)N1c1ccc(F)cc1 | 9.9 | –
12 | O=C1O[C@H]([C@H](O)CCc2ccccc2)[C@@H](c2ccccc2O)N1c1ccc(F)cc1 | 12 | inhibition in vivo at 3 mg/kg (Hamster): 0%
13 | COc1ccc([C@@H]2[C@@H](C(=O)N3CCc4ccccc4C3)OC(=O)N2c2cccc(F)c2)c(O)c1 | 3.6 | –
14 | O=C(NCc1ccc(F)cc1)[C@H]1OC(=O)N(c2ccc(F)cc2)[C@@H]1c1ccc(O)cc1 | 30 | –
15 | COc1ccc([C@@H]2[C@@H]([C@H](O)CCc3ccccc3)OC(=O)N2c2cccc(F)c2)c(O)c1 | 2.3 | –
16 | O=C1O[C@H]([C@H](O)CCc2ccccc2)[C@@H](c2ccc(O)cc2)N1c1cccc(F)c1 | 11 | half-life [2]: 1.18 h
17 | COc1ccc([C@@H]2[C@@H](C(=O)N(C)Cc3ccc(F)cc3)OC(=O)N2c2cccc(F)c2)c(O)c1 | 1.4 | inhibition in vivo at 3 mg/kg (Hamster): 0%

Row | SMILES | Ki [1] [µM] | also measured
18 | O=C1O[C@H]([C@H](O)COc2ccc(F)cc2)[C@@H](c2ccc(O)cc2)N1c1ccc(F)cc1 | 28 | half-life [2]: 1.12 h
19 | CN(Cc1ccc(F)cc1)C(=O)[C@H]1OC(=O)N(c2ccc(F)cc2)[C@@H]1c1ccc(O)cc1 | 14 | –
20 | COc1cccc(OC[C@@H](O)[C@H]2OC(=O)N(c3ccc(F)cc3)[C@@H]2c2ccc(O)cc2)c1 | 15 | –
21 | COc1ccc(OC[C@@H](O)[C@H]2OC(=O)N(c3ccc(F)cc3)[C@@H]2c2ccc(O)cc2)cc1 | > 50 | –
22 | O=C(O)[C@H]1O[C@@H](Oc2ccc([C@@H]3[C@@H](CC[C@H](O)c4ccc(F)cc4)C(=O)N3c3ccc(F)cc3)cc2)[C@H](O)[C@@H](O)[C@@H]1O | 0.18 | half-life [3]: > 1 h
23 | O=C(NC[C@H]1OC(=O)N(c2ccc(F)cc2)[C@@H]1c1ccc(O)cc1)c1ccc(F)cc1 | > 50 | –
24 | COc1cccc([C@@H]2[C@@H]([C@H](O)CCc3ccccc3)OC(=O)N2c2cccc(F)c2)c1O | 5.7 | –
25 | O=C1O[C@H]([C@H](O)COc2ccc(Cl)cc2)[C@@H](c2ccc(O)cc2)N1c1ccc(F)cc1 | 49 | –
26 | O=C1O[C@H]([C@H](O)CNc2ccc(F)cc2)[C@@H](c2ccc(O)cc2)N1c1ccc(F)cc1 | 19 | –
27 | COc1ccc([C@@H]2[C@@H]([C@H](O)COc3ccc(F)cc3)OC(=O)N2c2cccc(F)c2)c(O)c1 | 28 | inhibition in vivo at 3 mg/kg (Hamster): 0%
28 | O=C1O[C@H]([C@H](O)CCc2ccccc2)[C@@H](c2ccc(F)cc2O)N1c1cccc(F)c1 | 19 | inhibition in vivo at 3 mg/kg (Hamster): 0%
29 | COc1ccc([C@@H]2[C@@H](CCCc3ccccc3)OC(=O)N2c2ccc(OC)cc2)cc1 | > 50 | –
30 | COc1cccc(OC[C@@H](O)[C@H]2OC(=O)N(c3cccc(F)c3)[C@@H]2c2ccc(OC)cc2O)c1 | 8.7 | –
31 | O=C1O[C@H]([C@H](O)CCc2ccccc2)[C@@H](c2cccc(O)c2)N1c1ccc(F)cc1 | 33 | –
32 | O=C1O[C@H]([C@H](O)CCc2ccccc2)[C@@H](c2ccc(O)cc2)N1c1ccc(F)cc1 | > 50 | –
33 | O=C1[C@H](CC[C@H](O)c2ccc(F)cc2)[C@@H](c2ccc(O)cc2)N1c1ccc(F)cc1 [EZETIMIBE] | 0.2 | half-life [3]: 0.158 h; half-life [2]: 0.717 h
